From ChEMBL document CHEMBL1145312, “Structure-activity relationships of triazolopyridine oxazole p38 inhibitors: identification of candidates for clinical development” (Bioorg Med Chem Lett, 2006)
Values after ≈ are worked out from the molar mass of the structure shown.

Key:
Homo sapiens = organism: Homo sapiens; test: Inhibition of LPS-induced TNFalpha production in human whole blood; format: functional, organism-based
[1] = molecular target: Mitogen-activated protein kinase 14 (Homo sapiens, UniProt Q16539); test: Inhibition of p38alpha
Mitogen-activated protein kinase 14, sequence (Q16539 whole entry): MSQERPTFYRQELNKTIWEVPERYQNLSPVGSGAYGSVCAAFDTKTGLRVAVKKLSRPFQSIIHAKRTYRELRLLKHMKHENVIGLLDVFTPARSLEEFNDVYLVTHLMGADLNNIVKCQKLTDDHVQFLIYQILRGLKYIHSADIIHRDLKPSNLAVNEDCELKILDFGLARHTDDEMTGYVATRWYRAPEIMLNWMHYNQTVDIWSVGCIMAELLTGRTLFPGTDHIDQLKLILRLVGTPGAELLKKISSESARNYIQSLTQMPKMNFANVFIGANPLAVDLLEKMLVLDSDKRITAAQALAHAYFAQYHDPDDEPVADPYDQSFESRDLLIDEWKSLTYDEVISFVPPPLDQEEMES

[2] = Hepatocyte microsomal extraction ratio in human; conditions: hepatic microsomes
Monocyte = test: Inhibition of LPS-induced TNFalpha production in human monocytes; format: functional, cell-based
[3] = Hepatocyte extraction ratio in human; format: ADME, cell-based; conditions: hepatocytes
[4] = Permeability from apical to basolateral side of Caco-2 cell membrane; format: ADME, cell-based; conditions: human
[5] = Permeability from basolateral to apical side of Caco-2 cell membrane; format: ADME, cell-based; conditions: human
[6] = Half life in monkey; format: ADME, organism-based, Macaca mulatta; conditions: rhesus monkey, in vivo
[7] = Bioavailability in rat; format: ADME, organism-based; conditions: in vivo
[8] = Bioavailability in monkey; format: ADME, organism-based, Macaca mulatta; conditions: rhesus monkey, in vivo
[9] = Plasma clearance in monkey; format: ADME, organism-based, Macaca mulatta; conditions: rhesus monkey
[10] = Volume of distribution in rat; format: ADME, organism-based; conditions: in vivo, read-out: Vdss
[11] = Plasma clearance in rat; format: ADME, organism-based
[12] = Solubility in PBS buffer at ph 6.5; format: physicochemical
[13] = Volume of distribution in monkey; format: ADME, organism-based, Macaca mulatta; conditions: rhesus monkey, in vivo; read-out: Vdss
Rattus norvegicus = organism: Rattus norvegicus; test: Inhibition of LPS-induced TNFalpha release in rat; format: functional
[14] = Half life in rat; format: ADME, organism-based; conditions: in vivo

SMILES | IC50 (Homo sapiens) [nM] | IC50 [1] [nM] | IC50 (Monocyte) [nM] | also measured
CC(C)(C)c1nnc2ccc(-c3ocnc3-c3ccc(F)cc3)cn12 | 470 | 3.5 | 38.7 | hepatic extraction ratio [2]: < 0.3
FC(F)(F)Cc1nnc2ccc(-c3ocnc3-c3ccccc3)cn12 | – | 83.2 | 915 | hepatic extraction ratio [3]: > 0.5
CCN(C)c1nnc2ccc(-c3ocnc3-c3ccccc3)cn12 | – | 9.2 | 80 | hepatic extraction ratio [3]: > 0.5
CC(C)c1nnc2ccc(-c3ocnc3-c3ccc(Cl)cc3Cl)cn12 | – | 8.3 | 30 | hepatic extraction ratio [2]: < 0.3
CC(C)c1nnc2ccc(-c3ocnc3-c3cccc(F)c3)cn12 | – | 37.8 | 135 | hepatic extraction ratio [3]: > 0.5
Fc1ccc(-c2ncoc2-c2ccc3nnc(N4CCCC4)n3c2)cc1 | 935 | 15.4 | 52 | hepatic extraction ratio [3]: > 0.5
Fc1cc(F)c(-c2ncoc2-c2ccc3nnc(C4CC4)n3c2)cc1F | 565 | 7.8 | 40 | hepatic extraction ratio [2]: < 0.3
Fc1ccc(-c2ncoc2-c2ccc3nncn3c2)cc1 | – | 19.5 | > 5000 | hepatic extraction ratio [2]: < 0.3
CC(C)c1nnc2ccc(-c3ocnc3-c3ccc(F)c(F)c3F)cn12 | – | 11.1 | 57.4 | –
CC(C)c1nnc2ccc(-c3ocnc3-c3cc(Cl)ccc3F)cn12 | 190 | 5.1 | 10 | –
CC(C)c1nnc2ccc(-c3ocnc3-c3cc(F)c(F)c(F)c3)cn12 | – | 4.1 | 480 | hepatic extraction ratio [2]: < 0.3
CC(C)c1nnc2ccc(-c3ocnc3-c3cc(F)c(Cl)cc3F)cn12 | – | 24.5 | 60 | hepatic extraction ratio [2]: < 0.3
CC(C)c1nnc2ccc(-c3ocnc3-c3ccc(Cl)c(Cl)c3)cn12 | – | 26.4 | 148 | –
Fc1ccc(-c2ncoc2-c2ccc3nnc(C4CCC4)n3c2)cc1 | – | 17.7 | 49 | hepatic extraction ratio [3]: > 0.5
CC(C)c1nnc2ccc(-c3[nH]cnc3-c3cc(F)ccc3F)cn12 | 297 | 6.2 | 24.5 | Papp A→B [4]: 1 ×10⁻⁶ cm/s; Papp B→A [5]: 32 ×10⁻⁶ cm/s
CC(C)c1nnc2ccc(-c3ocnc3-c3c(F)cccc3F)cn12 | – | 14.6 | 71.1 | hepatic extraction ratio [2]: < 0.3
CCNc1nnc2ccc(-c3ocnc3-c3ccccc3)cn12 | 1710 | 5.4 | 40 | hepatic extraction ratio [3]: > 0.5
CC(C)Oc1nnc2ccc(-c3ocnc3-c3ccc(F)cc3)cn12 | – | 17.9 | 470 | –
CC(C)c1nnc2ccc(-c3cnoc3-c3cc(F)ccc3F)cn12 | – | 33.2 | 63 | Papp A→B [4]: 41 ×10⁻⁶ cm/s; Papp B→A [5]: 29 ×10⁻⁶ cm/s
CCN(C)c1nnc2ccc(-c3ocnc3-c3ccc(F)cc3)cn12 | 1550 | 4.7 | 34.6 | –
CC1(c2nnc3ccc(-c4ocnc4-c4ccc(F)cc4F)cn23)CCC1 | 77 | 1.1 | 10 | –
CC(C)c1nnc2ccc(-c3ocnc3-c3c(F)cc(F)cc3F)cn12 | 650 | 7.2 | 60 | hepatic extraction ratio [2]: < 0.3

SMILES | IC50 (Homo sapiens) [nM] | IC50 [1] [nM] | IC50 (Monocyte) [nM] | also measured
CC(C)c1nnc2ccc(-c3ocnc3-c3ccc(F)c(Cl)c3)cn12 | 631 | 12.4 | 47.2 | half-life [6]: 4.7 h; bioavailability [7]: 9.4%; bioavailability [8]: 31%; clearance [9]: 5.7 mL/min/kg; Vd [10]: 1.3 L/kg; clearance [11]: 17 mL/min/kg; solubility [12]: 2.8 µg/mL (≈ 7.85 µM); Vd [13]: 1.4 L/kg; ED50 (Rattus norvegicus): 0.5 mg/kg; half-life [14]: 0.9 h
CC(C)c1nnc2ccc(-c3ocnc3-c3ccc(Cl)c(F)c3)cn12 | – | 43.2 | 266 | –
CC(C)(O)c1nnc2ccc(-c3ocnc3-c3cc(F)ccc3F)cn12 | 1400 | 25 | 200 | –
c1ccc(-c2ncoc2-c2ccc3nnc(C4CC4)n3c2)cc1 | – | 47.2 | 150 | hepatic extraction ratio [3]: > 0.5
CCc1nnc2ccc(-c3ocnc3-c3ccccc3)cn12 | – | 54.5 | 672 | hepatic extraction ratio [3]: > 0.5
CC(C)c1nnc2ccc(-c3ocnc3-c3cc(F)c(F)cc3Cl)cn12 | – | 5.6 | 54.8 | hepatic extraction ratio [2]: < 0.3
CC1(c2nnc3ccc(-c4ocnc4-c4ccc(F)cc4)cn23)CCC1 | – | 14 | 40 | hepatic extraction ratio [3]: > 0.5
Cc1ccc(F)c(-c2ncoc2-c2ccc3nnc(C(C)C)n3c2)c1 | – | 4.3 | 10 | hepatic extraction ratio [3]: > 0.5
c1ccc(-c2ncoc2-c2ccc3nnc(-c4ccno4)n3c2)cc1 | – | 285 | > 2000 | –
CC1(c2nnc3ccc(-c4ocnc4-c4cc(F)ccc4F)cn23)CC1 | 385 | 3 | 45.8 | hepatic extraction ratio [2]: < 0.3
Fc1ccc(-c2ncoc2-c2ccc3nnc(C4CCC4)n3c2)c(F)c1 | – | 3.75 | 40 | hepatic extraction ratio [3]: > 0.5
CCOc1ccccc1-c1nnc2ccc(-c3ocnc3-c3ccc(F)cc3)cn12 | 697 | 0.4 | 10 | hepatic extraction ratio [3]: > 0.5
Fc1cc(F)c(-c2ncoc2-c2ccc3nnc(C4CCC4)n3c2)cc1F | 353 | 9.1 | 50 | –
CC1(c2nnc3ccc(-c4ocnc4-c4cc(F)ccc4F)cn23)CCC1 | – | 1.5 | 10 | –
CCc1nnc2ccc(-c3ocnc3-c3ccc(F)cc3)cn12 | – | 21.6 | 630 | –
Fc1ccc(-c2ncoc2-c2ccc3nnc(C4CC4)n3c2)cc1 | 4650 | 10.9 | 186 | hepatic extraction ratio [3]: > 0.5
FC(F)c1nnc2ccc(-c3ocnc3-c3ccccc3)cn12 | – | 544 | – | –
CC(C)Cc1nnc2ccc(-c3ocnc3-c3ccc(F)cc3)cn12 | – | 8.8 | 70 | –
CC(C)c1nnc2ccc(-c3ocnc3-c3cc(F)cc(F)c3F)cn12 | – | 83.3 | 490 | hepatic extraction ratio [2]: < 0.3
CN(C)c1nnc2ccc(-c3ocnc3-c3ccc(F)cc3)cn12 | – | 15.3 | 165 | hepatic extraction ratio [3]: > 0.5
CC1(c2nnc3ccc(-c4ocnc4-c4cc(F)c(F)cc4F)cn23)CC1 | 263 | 2.3 | 28.3 | hepatic extraction ratio [2]: < 0.3
CC1(c2nnc3ccc(-c4ocnc4-c4cc(F)c(F)cc4F)cn23)CCC1 | 90 | 2.5 | 10 | –

SMILES | IC50 (Homo sapiens) [nM] | IC50 [1] [nM] | IC50 (Monocyte) [nM] | also measured
Cc1cccc(-c2ncoc2-c2ccc3nnc(C(C)C)n3c2)c1 | – | 18.3 | 24.5 | –
CC(C)(C)c1nnc2ccc(-c3ocnc3-c3cc(F)ccc3F)cn12 | 220 | 8.8 | 14.1 | hepatic extraction ratio [2]: < 0.3
CC(C)c1nnc2ccc(-c3ocnc3-c3ccccc3Cl)cn12 | 937 | 3 | 57.4 | –
CC(C)Nc1nnc2ccc(-c3ocnc3-c3ccc(F)cc3)cn12 | – | 5.5 | 31.6 | –
Fc1ccc(-c2ncoc2-c2ccc3nnc(C4CC4)n3c2)c(F)c1 | 910 | 3.5 | 45.8 | –
Fc1ccc(F)c(-c2ncoc2-c2ccc3nnc(C4CC4)n3c2)c1 | 1400 | 24 | 31.6 | hepatic extraction ratio [2]: < 0.3
c1ccc(-c2ncoc2-c2ccc3nnc(C4CCC4)n3c2)cc1 | – | 16.6 | 69.3 | –
CC(C)c1nnc2ccc(-c3ocnc3-c3ccc(Cl)cc3F)cn12 | 600 | 2.2 | 20 | hepatic extraction ratio [2]: < 0.3; hepatic extraction ratio [3]: > 0.5
Fc1ccc(-c2ncoc2-c2ccc3nnc(Cc4ccccc4)n3c2)cc1 | – | 19.9 | > 1000 | –
Fc1ccc(F)c(-c2ncoc2-c2ccc3nnc(C4CCC4)n3c2)c1 | – | 9.7 | 60 | –
CC(C)c1nnc2ccc(-c3ocnc3-c3ccc(Cl)cc3)cn12 | – | 17.7 | 70 | –
CCOc1nnc2ccc(-c3ocnc3-c3ccc(F)cc3)cn12 | – | 55.5 | 360 | –
CC(C)c1nnc2ccc(-c3ocnc3-c3ccc(F)c(F)c3)cn12 | – | 22.3 | 49 | –
Fc1ccc(-c2ncoc2-c2ccc3nnc(-c4ccccc4)n3c2)cc1 | 5350 | 12.3 | 90 | hepatic extraction ratio [3]: > 0.5
Fc1ccc(-c2ncoc2-c2ccc3nnc(N4CCOCC4)n3c2)cc1 | – | 11.8 | 1440 | hepatic extraction ratio [2]: < 0.3
COc1ccccc1-c1nnc2ccc(-c3ocnc3-c3ccc(F)cc3)cn12 | 873 | 0.4 | 10 | –
CC(C)c1nnc2ccc(-c3ocnc3-c3cccc(Cl)c3Cl)cn12 | – | 14.5 | 57.4 | hepatic extraction ratio [2]: < 0.3
CC(C)c1nnc2ccc(-c3ocnc3-c3ccc(F)c(Br)c3)cn12 | – | 8 | 122 | hepatic extraction ratio [2]: < 0.3
Cc1cc(-c2ncoc2-c2ccc3nnc(C(C)C)n3c2)ccc1F | 260 | 6.6 | 11.6 | hepatic extraction ratio [3]: > 0.5
CC1(c2nnc3ccc(-c4ocnc4-c4ccc(F)cc4F)cn23)CC1 | 245 | 0.7 | 30 | hepatic extraction ratio [3]: > 0.5
CC(C)c1nnc2ccc(-c3ocnc3-c3ccc(F)cc3F)cn12 | 265 | 4.6 | 10 | hepatic extraction ratio [3]: > 0.5
CCCNc1nnc2ccc(-c3ocnc3-c3ccc(F)cc3)cn12 | – | 198 | – | –
